This is an account of results in ChEMBL document CHEMBL1143587, “Discovery of S-phase arresting agents derived from noscapine” (J Med Chem, 2005).

pEC50: −log10 of the molar value. Active and inactive are the calls of the source. The calls are words filed in the database; no cut-off is given here.

The subject of assay [1] is HEK293. The assay can be described thus: Effect to arrest S-phase on HEK 293 cells at 10 uM was determined. Type of assay: functional, Homo sapiens.
Assay [2] deals with HEK293. Nature of the assay: Effect to arrest GI-phase on HEK 293 cells at 10 uM was determined. Type of assay: functional, Homo sapiens.
Assay [3] concerns HEK293. The assay can be described thus: Effect to arrest G2/M-phase on HEK 293 cells at 10 uM was determined. Type of assay: functional, Homo sapiens.
The subject of assay [4] is HEK293. The assay can be described thus: Effect to arrest G2/M-phase on HEK 293 cells at 50 uM was determined. Type of assay: functional, Homo sapiens.
Assay [5] has as its system HEK293. The assay can be described thus: Effect to arrest S-phase on HEK 293 cells at 1 uM was determined. Type of assay: functional, Homo sapiens.
In assay [6] the test system is HEK293. The assay can be described thus: Effect to arrest GI-phase on HEK 293 cells at 1 uM was determined. Type of assay: functional, Homo sapiens.
Assay [7] concerns HEK293. The assay can be described thus: Effect to arrest S-phase on HEK 293 cells at 50 uM was determined. Type of assay: functional, Homo sapiens.
The test system of assay [8] is HEK293. The assay can be described thus: Effect to arrest GI-phase on HEK 293 cells at 50 uM was determined. Type of assay: functional, Homo sapiens.
The test system of assay [9] is HEK293. Nature of the assay: Effect to arrest G2/M-phase on HEK 293 cells at 1 uM was determined. Type of assay: functional, Homo sapiens.
Assay [10] relates to HEK293. The assay can be described thus: Compound was tested for inhibition of HEK293 proliferation. Type of assay: functional, cell-based. Conditions: Homo sapiens.
For assay [11], the system named is HEK293. Nature of the assay: Effect to arrest S-phase on HEK 293 cells at 50 uM was determined; Not significant. Type of assay: functional, cell-based. Conditions: Homo sapiens.
Assay [12] deals with HEK293. The assay can be described thus: Effect to arrest G2/M-phase on HEK 293 cells at 25 uM was determined. Type of assay: functional, Homo sapiens.
For assay [13], the system named is HEK293. The assay can be described thus: Effect to arrest S-phase on HEK 293 cells at 25 uM was determined. Type of assay: functional, Homo sapiens.
The subject of assay [14] is HEK293. Nature of the assay: Effect to arrest GI-phase on HEK 293 cells at 25 uM was determined. Type of assay: functional, Homo sapiens.

`COc1ccc2c(c1SCc1ccccc1)C(=O)O[C@@H]2[C@H]1c2c(cc3c(c2OC)OCO3)CCN1C`: the values for the Effect with HEK293 [1], with HEK293 [2] and in the assay with HEK293 [3] were 65%, 24% and 11%, respectively.
A word on the pEC50: it is −log10 of the EC50, conventionally taken in molar units. A higher pEC50 goes with a low EC50. With `COc1cc(COc2c(OC)ccc3c2C(=O)O[C@@H]3[C@H]2c3c(cc4c(c3OC)OCO4)CCN2C)cc(OC)c1OC`, the Effect in the assay with HEK293 [4] is 6%; with HEK293 [5], 65%; in the assay on HEK293 [6], 24%; with HEK293 [1], 65%; in the assay on HEK293 [7] it was 84%; with HEK293 [2] it was 19%. Further, the Effect in the assay on HEK293 [8] stood at 13%; with HEK293 [9], 11%; in the assay on HEK293 [3], 16%. The compound also gave a pEC50 with HEK293 [10] of 5.72.
Regarding `COc1ccc2c(c1-c1cc(F)cc(F)c1)C(=O)O[C@@H]2[C@H]1c2c(cc3c(c2OC)OCO3)CCN1C`, the result in the assay with HEK293 [11] was inactive.
Turning to `COc1cc(-c2c(OC)ccc3c2C(=O)O[C@@H]3[C@H]2c3c(cc4c(c3OC)OCO4)CCN2C)cc(OC)c1OC`, the outcome in the assay with HEK293 [11] was inactive.
As for `COc1ccc2c(c1OCc1ccsc1)C(=O)O[C@@H]2[C@H]1c2c(cc3c(c2OC)OCO3)CCN1C`, the Effect with HEK293 [12] stood at 10%; with HEK293 [13] it was 62%; in the assay with HEK293 [14] it was 28%.
Turning to `COc1ccc2c(c1OCc1ccccc1)C(=O)OC2[C@H]1c2c(cc3c(c2OC)OCO3)CCN1C` (stereo not given in full), the Effect with HEK293 [12] was 15%; in the assay with HEK293 [4] it was 10%; in the assay with HEK293 [1], 57%; in the assay on HEK293 [13], 71%; with HEK293 [7], 67%; in the assay with HEK293 [2], 28%. Also, the Effect in the assay with HEK293 [8] is reported as 23%; in the assay on HEK293 [3] it was 17%; with HEK293 [14] it was 12%. Further, in the assay on HEK293 [10], the pEC50 is 4.82.
Take `COc1ccc2c(c1OC)C(=O)O[C@@H]2[C@H]1c2c(cc3c(c2OC)OCO3)CCN1C` [NOSCAPINE]: the Effect with HEK293 [4] came out at 76%; with HEK293 [7] it was 18%; in the assay with HEK293 [8], 6%.
For `COc1cc2c(c(OC)c1OC)-c1ccc(OC)c(=O)cc1[C@@H](NC(C)=O)CC2` [COLCHICINE], the Effect was found to be 14% in the assay on HEK293 [1], 3% in the assay on HEK293 [2] and 83% in the assay on HEK293 [3].
Take `COc1ccc2c(c1-c1ccsc1)C(=O)O[C@@H]2[C@H]1c2c(cc3c(c2OC)OCO3)CCN1C`: the outcome with HEK293 [11] was inactive.
As for `COc1ccc2c(c1OCc1csc(C)n1)C(=O)O[C@@H]2[C@H]1c2c(cc3c(c2OC)OCO3)CCN1C`, the Effect with HEK293 [1] was 62%; with HEK293 [2] it was 28%; with HEK293 [3], 10%.
In the case of `COc1ccc2c(c1-c1ccc(N(C)C)cc1)C(=O)O[C@@H]2[C@H]1c2c(cc3c(c2OC)OCO3)CCN1C`, in the assay with HEK293 [11], the result was inactive.
The same measure, in the same setting: under `COc1ccc2c(c1-c1ccc(C(C)(C)C)cc1)C(=O)O[C@@H]2[C@H]1c2c(cc3c(c2OC)OCO3)CCN1C` stands “inactive”.
